Holding throughout (experiment): cell-based
Parameters in all cases: NanoBRET live-cell target engagement; % occupancy from displacement of tracer K10 on NanoLuc-kinase fusions, mean n=3
Holding throughout (conditions): HEK293, read-out: % inhibition
For orientation: Bioluminescence resonance energy transfer reports proximity on the nanometre scale.

The target in one test is CSNK1A1L (Homo sapiens, UniProt Q8N752). In outline: (§1)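 Live-cell NanoBRET target engagement: cells expressing kinase–NanoLuc fusion with tracer treated with compound 2 h at 37 °C, 5% CO2. BRET read from donor (450 nm) and acceptor (610/630 nm) emission with 20 μM extracellular NanoLuc inhibitor; % occupancy calculated relative to tracer+DMSO and zero-BRET controls.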
The next test has as its target DAPK2 (Homo sapiens, UniProt Q9UIK4). In outline: as §1
A further test has as its target DCLK3 (Homo sapiens, UniProt Q9C098). In outline: as §1
A further test has as its target ERN2 (Homo sapiens, UniProt Q76MJ5). In outline:
as §1

The target in the next test is FYN (Homo sapiens, UniProt P06241). Summed up:
as §1

In the next test the target is HIPK3 (Homo sapiens, UniProt Q9H422). In outline:
as §1

The target in another test is MAST4 (Homo sapiens, UniProt O15021). In outline: as §1
Another test addresses NEK1 (Homo sapiens, UniProt Q96PY6). In outline:
as §1

The target in a further test is NLK (Homo sapiens, UniProt Q9UBE8). In outline:
as §1

The target of another test is PLK3 (Homo sapiens, UniProt Q9H4B4). In outline: as §1
The target of the next test is PLK4 (Homo sapiens, UniProt O00444). Summed up: as §1
Another test has as its target PRKAA1 (Homo sapiens, UniProt Q13131). In outline:
as §1

Another test has as its target RIPK2 (Homo sapiens, UniProt O43353). Summed up:
as §1

A further test addresses RPS6KA3 (Homo sapiens, UniProt P51812). In outline: as §1
Another test has as its target STK17B (Homo sapiens, UniProt O94768). Summed up:
as §1

The next test has as its target TEC (Homo sapiens, UniProt P42680). Summed up: as §1
A further test has as its target TXK (Homo sapiens, UniProt P42681). In outline: as §1
The next test concerns the target ULK1 (Homo sapiens, UniProt O75385). In outline:
as §1

DCLK3, sequence (Q9C098 whole entry): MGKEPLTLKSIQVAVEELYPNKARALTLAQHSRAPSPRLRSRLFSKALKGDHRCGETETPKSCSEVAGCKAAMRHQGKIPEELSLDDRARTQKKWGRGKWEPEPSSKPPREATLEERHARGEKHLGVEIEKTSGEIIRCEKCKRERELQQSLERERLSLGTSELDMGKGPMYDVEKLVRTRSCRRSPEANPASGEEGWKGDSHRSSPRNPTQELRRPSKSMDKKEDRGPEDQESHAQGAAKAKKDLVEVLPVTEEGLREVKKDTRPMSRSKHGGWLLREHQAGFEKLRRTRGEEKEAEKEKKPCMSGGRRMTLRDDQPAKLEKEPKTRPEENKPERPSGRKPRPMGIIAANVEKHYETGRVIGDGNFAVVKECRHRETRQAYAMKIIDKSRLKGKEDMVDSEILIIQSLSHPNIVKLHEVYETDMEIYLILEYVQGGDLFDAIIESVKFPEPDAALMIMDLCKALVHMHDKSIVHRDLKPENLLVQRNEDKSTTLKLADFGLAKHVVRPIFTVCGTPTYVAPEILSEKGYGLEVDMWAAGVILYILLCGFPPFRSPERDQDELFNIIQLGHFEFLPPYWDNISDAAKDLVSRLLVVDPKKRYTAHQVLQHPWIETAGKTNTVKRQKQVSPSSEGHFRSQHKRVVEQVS
PRKAA1, sequence (Q13131 whole entry): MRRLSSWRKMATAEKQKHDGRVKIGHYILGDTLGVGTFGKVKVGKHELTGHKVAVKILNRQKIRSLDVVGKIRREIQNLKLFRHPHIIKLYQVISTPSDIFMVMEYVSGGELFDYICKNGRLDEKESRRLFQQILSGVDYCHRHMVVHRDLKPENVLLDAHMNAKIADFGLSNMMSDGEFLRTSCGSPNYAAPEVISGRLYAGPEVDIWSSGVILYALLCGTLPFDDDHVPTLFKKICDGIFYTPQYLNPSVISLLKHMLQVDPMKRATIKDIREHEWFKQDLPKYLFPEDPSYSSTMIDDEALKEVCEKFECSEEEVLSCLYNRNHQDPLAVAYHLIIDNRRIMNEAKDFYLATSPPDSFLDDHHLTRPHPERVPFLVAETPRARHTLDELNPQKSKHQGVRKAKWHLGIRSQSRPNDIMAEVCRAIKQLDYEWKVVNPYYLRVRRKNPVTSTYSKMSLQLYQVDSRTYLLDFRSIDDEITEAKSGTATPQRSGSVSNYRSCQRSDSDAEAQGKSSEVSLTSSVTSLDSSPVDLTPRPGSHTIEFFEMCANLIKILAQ
PRKAA1, sequence (P54619 whole entry partner): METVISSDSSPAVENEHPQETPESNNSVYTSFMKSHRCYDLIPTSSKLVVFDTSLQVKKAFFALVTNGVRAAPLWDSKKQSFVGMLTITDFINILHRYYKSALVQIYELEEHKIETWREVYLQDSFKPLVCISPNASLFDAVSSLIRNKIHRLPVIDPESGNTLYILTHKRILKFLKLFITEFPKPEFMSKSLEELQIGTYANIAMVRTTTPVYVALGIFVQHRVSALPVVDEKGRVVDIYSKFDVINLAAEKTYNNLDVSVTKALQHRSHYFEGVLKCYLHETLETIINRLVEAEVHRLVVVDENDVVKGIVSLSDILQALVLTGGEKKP
PRKAA1, sequence (Q9Y478 whole entry partner): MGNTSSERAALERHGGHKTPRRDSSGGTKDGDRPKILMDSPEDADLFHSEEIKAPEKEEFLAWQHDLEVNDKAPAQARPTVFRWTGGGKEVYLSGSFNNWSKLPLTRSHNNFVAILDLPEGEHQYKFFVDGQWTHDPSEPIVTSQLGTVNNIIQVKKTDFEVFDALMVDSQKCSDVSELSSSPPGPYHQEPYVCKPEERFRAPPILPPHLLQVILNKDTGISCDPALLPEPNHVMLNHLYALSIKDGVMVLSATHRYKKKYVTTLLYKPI
CSNK1A1L, sequence (Q8N752 whole entry, the tested form may be a part): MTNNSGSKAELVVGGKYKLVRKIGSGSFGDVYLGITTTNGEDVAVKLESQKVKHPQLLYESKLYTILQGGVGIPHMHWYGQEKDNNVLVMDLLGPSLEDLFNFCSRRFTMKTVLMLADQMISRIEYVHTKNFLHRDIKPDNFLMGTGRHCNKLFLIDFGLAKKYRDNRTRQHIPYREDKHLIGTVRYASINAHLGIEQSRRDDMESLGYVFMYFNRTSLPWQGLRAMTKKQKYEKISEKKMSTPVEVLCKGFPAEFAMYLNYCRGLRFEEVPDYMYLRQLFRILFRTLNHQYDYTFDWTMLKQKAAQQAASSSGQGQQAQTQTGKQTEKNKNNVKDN
ERN2, sequence (Q76MJ5 whole entry): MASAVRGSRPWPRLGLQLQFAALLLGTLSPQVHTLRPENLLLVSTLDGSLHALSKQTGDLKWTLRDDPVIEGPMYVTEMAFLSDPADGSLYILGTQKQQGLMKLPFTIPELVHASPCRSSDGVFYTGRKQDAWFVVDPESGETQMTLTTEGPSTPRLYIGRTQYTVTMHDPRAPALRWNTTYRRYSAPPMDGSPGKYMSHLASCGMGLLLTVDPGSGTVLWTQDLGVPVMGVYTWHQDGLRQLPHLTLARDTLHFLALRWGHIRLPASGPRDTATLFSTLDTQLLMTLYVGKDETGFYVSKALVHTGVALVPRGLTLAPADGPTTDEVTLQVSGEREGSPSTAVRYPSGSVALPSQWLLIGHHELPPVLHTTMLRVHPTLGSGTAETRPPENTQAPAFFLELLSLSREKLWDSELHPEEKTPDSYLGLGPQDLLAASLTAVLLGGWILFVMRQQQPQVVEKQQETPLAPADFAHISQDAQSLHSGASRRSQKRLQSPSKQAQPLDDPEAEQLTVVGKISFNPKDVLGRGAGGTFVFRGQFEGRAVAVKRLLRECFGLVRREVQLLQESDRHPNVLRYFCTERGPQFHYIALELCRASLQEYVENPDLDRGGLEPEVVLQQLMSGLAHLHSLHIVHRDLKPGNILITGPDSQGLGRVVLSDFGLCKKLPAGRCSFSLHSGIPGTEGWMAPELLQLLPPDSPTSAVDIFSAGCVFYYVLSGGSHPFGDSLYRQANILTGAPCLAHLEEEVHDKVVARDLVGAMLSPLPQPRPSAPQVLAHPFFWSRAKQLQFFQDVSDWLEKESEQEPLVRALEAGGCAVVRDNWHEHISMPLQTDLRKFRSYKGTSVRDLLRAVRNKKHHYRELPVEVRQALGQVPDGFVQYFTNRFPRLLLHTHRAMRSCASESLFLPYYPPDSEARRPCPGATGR
NEK1, sequence (Q96PY6 whole entry): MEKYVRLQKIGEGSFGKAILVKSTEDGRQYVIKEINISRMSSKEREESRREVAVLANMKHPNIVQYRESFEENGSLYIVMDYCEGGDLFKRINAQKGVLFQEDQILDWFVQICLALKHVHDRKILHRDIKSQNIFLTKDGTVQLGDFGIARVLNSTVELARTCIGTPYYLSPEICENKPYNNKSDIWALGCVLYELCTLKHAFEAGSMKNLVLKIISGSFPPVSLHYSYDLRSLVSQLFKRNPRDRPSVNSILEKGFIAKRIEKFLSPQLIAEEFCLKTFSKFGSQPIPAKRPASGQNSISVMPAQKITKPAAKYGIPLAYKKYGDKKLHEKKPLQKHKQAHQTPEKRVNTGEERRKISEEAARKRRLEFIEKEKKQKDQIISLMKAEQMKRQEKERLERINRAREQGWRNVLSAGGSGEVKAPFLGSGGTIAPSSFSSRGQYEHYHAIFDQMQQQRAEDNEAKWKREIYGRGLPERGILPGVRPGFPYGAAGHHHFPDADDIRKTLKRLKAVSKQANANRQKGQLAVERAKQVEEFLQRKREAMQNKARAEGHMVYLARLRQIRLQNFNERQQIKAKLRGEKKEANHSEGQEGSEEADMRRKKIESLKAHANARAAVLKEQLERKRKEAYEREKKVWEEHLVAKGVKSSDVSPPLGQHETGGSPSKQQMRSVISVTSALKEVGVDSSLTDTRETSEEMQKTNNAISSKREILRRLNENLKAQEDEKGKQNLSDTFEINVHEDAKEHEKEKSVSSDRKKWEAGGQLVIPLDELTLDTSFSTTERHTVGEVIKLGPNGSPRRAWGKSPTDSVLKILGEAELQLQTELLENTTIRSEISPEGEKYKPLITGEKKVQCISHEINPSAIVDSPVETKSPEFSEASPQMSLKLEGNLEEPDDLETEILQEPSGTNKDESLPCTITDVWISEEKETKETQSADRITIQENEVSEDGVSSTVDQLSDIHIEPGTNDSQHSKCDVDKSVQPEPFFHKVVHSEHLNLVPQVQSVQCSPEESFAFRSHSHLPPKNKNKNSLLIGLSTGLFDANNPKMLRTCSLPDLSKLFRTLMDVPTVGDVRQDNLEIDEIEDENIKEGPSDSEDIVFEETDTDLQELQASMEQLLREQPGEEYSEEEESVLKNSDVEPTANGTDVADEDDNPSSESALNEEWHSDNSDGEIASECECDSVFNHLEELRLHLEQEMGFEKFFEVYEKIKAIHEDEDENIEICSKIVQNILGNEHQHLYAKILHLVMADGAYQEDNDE
RIPK2, sequence (O43353 whole entry): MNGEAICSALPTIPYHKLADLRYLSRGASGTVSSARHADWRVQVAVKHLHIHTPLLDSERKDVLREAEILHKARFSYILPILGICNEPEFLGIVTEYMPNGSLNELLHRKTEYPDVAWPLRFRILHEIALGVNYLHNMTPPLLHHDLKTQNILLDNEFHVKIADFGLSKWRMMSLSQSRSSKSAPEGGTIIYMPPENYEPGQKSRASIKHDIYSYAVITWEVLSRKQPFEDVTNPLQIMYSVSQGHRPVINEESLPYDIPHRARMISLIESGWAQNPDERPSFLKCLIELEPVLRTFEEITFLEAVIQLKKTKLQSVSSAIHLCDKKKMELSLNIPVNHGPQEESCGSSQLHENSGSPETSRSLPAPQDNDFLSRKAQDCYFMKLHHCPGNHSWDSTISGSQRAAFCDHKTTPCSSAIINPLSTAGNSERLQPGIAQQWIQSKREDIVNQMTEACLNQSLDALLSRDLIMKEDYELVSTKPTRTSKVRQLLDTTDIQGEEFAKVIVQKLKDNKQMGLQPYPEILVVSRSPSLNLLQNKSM

As usually defined, the inhibition is the relative decrease from the control value, in per cent. As for `C[C@@H](Oc1cc(-c2cnn(C3CCNCC3)c2)cnc1N)c1c(Cl)ccc(F)c1Cl` [crizotinib], the inhibition at 1 µM at CSNK1A1L was -6%; on DAPK2, 3%; on DCLK3 it was 0%; on ERN2 it was -9%; on FYN it was -2%; at HIPK3 it was -4%. In addition, the inhibition at 1 µM was 6% on MAST4; 3% on NEK1; -1% at NLK; 4% at PLK3; 4% on PLK4; -1% on PRKAA1. Besides, the inhibition at 1 µM at RIPK2 is 43%; at RPS6KA3, -7%; on STK17B, 0%; on TEC, -7%; on TXK, 18%; at ULK1, -1%.

Source of the values: article PMC8449129, “Single tracer-based protocol for broad-spectrum kinase profiling in live cells with NanoBRET” (STAR Protocols, 2021).
